Data on 1 compound can be found in PMC9067978, “Design, synthesis, and molecular docking studies of novel pomalidomide-based PROTACs as potential anti-cancer agents targeting EGFR^WT and EGFR^T790M” (Journal of Enzyme Inhibition and Medicinal Chemistry, 2022).

For one assay, the target named is T1, EGFR (Homo sapiens, UniProt P00533).
T1 construct: EGFR degradation activities of compounds in A549 cells; endogenous in cells; host or cells: A549
As to the kind of experiment: Western blotting, EGFR degradation in A549 cells. The class given is cell-based. The method, then: Following this, the target compounds 15–21 tethering various E3 ligases ligand were chosen as representative PROTACs for further degradation study based on temporal data.
Figure 4. (A) EGFR degradation activities of compounds in A549 cells. Cells were treated for 48 h with concentration of 0.1 and 1 µM. (B) Effects of concentration-dependent EGFR degradation by compounds 15–21 in A549 cell lines. Cells were treated for 48 h with a concentration from 1 nM to 10 µM. EGFR protein was examined by Western blotting analysis and EGFR degradation rate was quantified by densitometry and normalised to the corresponding density of β-actin protein (n ¼ 3). TEXT PRINTED IN THE PICTURE: (B) Comp 15: DC50 = 43.4 nm | (B) Comp 16: DC50= 32.9 nm DOUBTS OF THE COPYIST ABOUT THIS PICTURE: Comp 15, DC50: 43.4 is small blurred print; the 3 could be 8 and the digits are not certain / Comp 16, DC50: 32.9 is small blurred print; the 3 could be 8 and the 9 could be 8 or 0
We set nine concentration gradients ranging from […] to 10 µM to determine the degradation activity of all tested compounds and calculated the DC50 (concentration that caused deletion of 50% of EGFR) values.
At a concentration of 100 nM, the time-dependent degradation activities of compounds 15–21 were also examined (Figure 5(A)).
Figure 5. (A) EGFR time-dependent degradation by compound 16 in A549 cell lines. Cells were treated with100 nM of 15–21 for indicated time points. Western blotting was used to evaluate EGFR protein, and densitometry was used to measure EGFR degradation, which was adjusted to the density of β-actin protein (n ¼2). (B) Compounds 15 and 16 have EGFR degradation and phosphorylation inhibitory action in A549 cells. The cells were exposed to concentrations of 0.1, 0.3, and 1 µM. Erlotinib were utilised for comparison. TEXT PRINTED IN THE PICTURE: (A) Comp 15: Dmax = 85 % @ 96 h; Degradation: 9 (4 h; 100 nM); Degradation: 22 (8 h; 100 nM); Degradation: 42 (12 h; 100 nM); Degradation: 83 (24 h; 100 nM); Degradation: 84 (36 h; 100 nM); Degradation: 82 (48 h; 100 nM); Degradation: 82 (72 h; 100 nM); Degradation: 85 (96 h; 100 nM) | (A) Comp 16: Dmax = 96 % @72 h; Degradation: 32 (4 h; 100 nM); Degradation: 43 (8 h; 100 nM); Degradation: 67 (12 h; 100 nM); Degradation: 69 (24 h; 100 nM); Degradation: 78 (36 h; 100 nM); Degradation: 85 (48 h; 100 nM); Degradation: 96 (72 h; 100 nM); Degradation: 94 (96 h; 100 nM) DOUBTS OF THE COPYIST ABOUT THIS PICTURE: Comp 15, Dmax: print is blurred, 85 % @ 96 h is the best reading (85 or 86) / Comp 16, Dmax: print is small and blurred, 96 % @72 h is the best reading (96 or 95; the % sign is unclear) / Comp 15, Degradation row: print is blurred, 83/84/82/82/85 are best readings (3, 5, 8 are hard to tell apart) / Comp 16, Degradation row: print is blurred, 67/69/78/85/96/94 are best readings (5, 6, 8, 9 are hard to tell apart) / The Degradation rows are printed under the blot lanes with no unit. The value 0 under the 0.1 % DMSO control lane was not assigned to any compound.
Cells were seeded in 6-well plates at 1 × 10^6 per well, incubated at 37 °C with 5% CO2 for 24 h before drug exposure. Cells were treated with different concentrations of synthesised compounds for […], then collected and suspended in lysis buffer (Beyotime) and centrifuged for 20 min at 12000 rpm, later removed the insoluble material. […] The results were detected by an enhanced chemiluminescence system (Mill-pore). […]
On the technique in general: A western blot detects proteins with antibodies after separation by electrophoresis.

In assay [1] the test system is HCT-116. As to the kind of experiment: DNA-flow cytometric cell cycle analysis, HCT-116. The format is cell-based, human. To be noted: 3.32 µM, 24 hours. The method, then:
Then, the influence of compound 16 on the cell cycle profile was then investigated.
The cells that had been tested were then trypsinized and washed in sterilised phosphate buffer saline (PBS). The collected cells were fixed with cold ethanol (100%, 1.5 ml). According to the manufacturer’s instructions, a Cycle TESTTM PLUS DNA Reagent Kit was used to dye the cells (BD Biosciences, San Jose, CA). A flow cytometer was used to assess cell-cycle distribution.[52]
A general note: Flow cytometry measures light scatter and fluorescence of single cells or particles in a stream.

Assay [2] relates to HCT-116. Description: Annexin V/propidium iodide apoptosis assay, HCT-116. The class given is cell-based, human. Particulars: 3.32 µM, 24 hours. Here is the method:
The double staining Annexin V/propidium iodide technique was performed to assess the mechanism of cell death and apoptosis-inducing activity.[46] […] As shown in (Figure 7 (A and B).
The negative control was chosen to be DMSO. The cells were then collected and washed twice in PBS. The cells were separated using centrifugation. An apoptosis detection kit (BD Biosciences, SanJose, CA) was used in this investigation. Following the manufacturer’s instructions, the cells were dyed with Annexin V-FITC and propidium iodide (PI) in the binding buffer for 20 minutes at 37 °C in the darkness. A flow cytometer was used to assess the binding of Annexin V-FITC and PI. The frequencies in all quadrants were investigated using the Flowjo program.[53]

A further assay concerns A549. As to the kind of experiment: MTT anti-proliferative assay, A549. (Tetrazolium dyes change colour on reduction, which living cells bring about.)
The next assay has as its system HepG-2. Description: MTT anti-proliferative assay, HepG-2.
Assay [3] relates to HCT-116. As to the kind of experiment: MTT anti-proliferative assay, HCT-116.
Description: (§1) The anti-proliferative activity was quantified in the following way. At a density of 3–8 × 10^3 cells per well, human cancer cell lines were introduced to 96-well plates. The wells were then incubated at 37 °C for 12 hours in 5% CO2 incubator. To determine the DMSO content, the culture media was swapped with 0.1 ml of fresh medium containing graded amounts of the test compounds for each well. Incubation time for the wells was two days. The cells were then cultured in 100 µl MTT solution (5 µg ml^−1) for another 4 hours in each well.
(§2) The absorbance of each well was measured at 490 nm with an automated ELISA reader system (TECAN, CHE) after MTT-formazan crystals were dissolved in 100 µl of DMSO. The IC50 values were calculated using nonlinear regression fitting models (Graph Pad, Prism Version 5). The results were expressed as means ± SD and were based on the average of three separate, duplicate trials.
[4] abbreviates: ratio of cytotoxic IC50 to erlotinib.

T1 sequence (P00533 25-1210): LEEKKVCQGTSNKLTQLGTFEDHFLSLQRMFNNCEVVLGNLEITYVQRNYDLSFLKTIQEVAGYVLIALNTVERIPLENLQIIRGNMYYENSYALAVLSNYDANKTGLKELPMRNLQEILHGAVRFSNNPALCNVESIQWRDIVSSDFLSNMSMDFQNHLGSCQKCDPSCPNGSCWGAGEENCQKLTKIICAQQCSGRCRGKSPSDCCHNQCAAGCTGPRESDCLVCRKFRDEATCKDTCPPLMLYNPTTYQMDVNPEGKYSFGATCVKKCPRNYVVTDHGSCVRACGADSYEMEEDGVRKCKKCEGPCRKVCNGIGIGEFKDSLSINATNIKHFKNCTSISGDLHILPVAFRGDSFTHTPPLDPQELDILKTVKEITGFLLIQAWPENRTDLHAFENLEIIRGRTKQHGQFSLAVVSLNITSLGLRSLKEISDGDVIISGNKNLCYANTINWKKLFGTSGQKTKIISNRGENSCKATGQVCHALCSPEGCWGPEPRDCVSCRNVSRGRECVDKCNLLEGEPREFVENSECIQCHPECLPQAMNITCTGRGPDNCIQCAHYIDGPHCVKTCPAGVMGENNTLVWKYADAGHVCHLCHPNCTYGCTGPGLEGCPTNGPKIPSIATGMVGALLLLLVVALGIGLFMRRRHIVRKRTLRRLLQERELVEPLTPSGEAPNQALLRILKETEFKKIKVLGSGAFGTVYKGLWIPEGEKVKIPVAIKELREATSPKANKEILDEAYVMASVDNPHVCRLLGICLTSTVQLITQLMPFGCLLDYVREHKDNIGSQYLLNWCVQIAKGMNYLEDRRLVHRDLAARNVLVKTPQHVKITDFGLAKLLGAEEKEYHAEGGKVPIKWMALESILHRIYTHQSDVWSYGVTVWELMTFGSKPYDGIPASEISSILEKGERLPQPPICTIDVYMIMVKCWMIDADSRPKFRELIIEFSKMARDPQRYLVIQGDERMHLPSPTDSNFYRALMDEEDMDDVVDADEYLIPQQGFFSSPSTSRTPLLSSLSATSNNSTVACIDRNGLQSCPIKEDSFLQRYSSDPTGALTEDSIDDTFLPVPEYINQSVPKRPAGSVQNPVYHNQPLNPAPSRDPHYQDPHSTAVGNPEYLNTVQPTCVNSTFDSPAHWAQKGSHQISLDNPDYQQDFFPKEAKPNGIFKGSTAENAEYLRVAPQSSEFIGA
Description for HepG-2: as §1, §2

Regarding `Cn1c(=O)c(C(=O)NNCCOCCOCC(=O)Nc2cccc3c2C(=O)N(C2CCC(=O)NC2=O)C3=O)nc2ccccc21` (centres unmarked) [Compound 16, N-(2-(2,6-dioxopiperidin-3-yl)-1,3-dioxoisoindolin-4-yl)-2-(2-(2-(2-(4-methyl-3-oxo-3,4-dihydroquinoxaline-2-carbonyl) hydrazinyl)ethoxy)ethoxy) acetamide], the greatest degradation seen (Dmax) at 0.1 µM on EGFR (A549, A549 cells, 100 nM, time course, reached at 96 h (15) and 72 h (16), read-out: Dmax, maximum EGFR degradation rate) worked out at 96%. The DC50 on EGFR (A549 cells, 48 h, Western blotting densitometry, read-out: DC50 (concentration that caused deletion of 50% of EGFR)) was 0.0329 µM. On EGFR (A549 cells, 48 h, concentration series up to 10 µM), the “concentration-dependent EGFR degradation, in words” value is reported as “hook effect”. Also, in the assay on HCT-116 [1], the “fold increase of cells in G2-M phase vs control, HCT-116” value came out at 1.49 fold and the “fold increase of cells in pre-G1 phase vs control, HCT-116” value came out at 5.37 fold. In the assay on HCT-116 [2], the “cellular apoptosis, early and late, times vs control, HCT-116” value is on record as ~9 times; the “early apoptosis ratio, HCT-116” value is 5.96%; the “late apoptosis ratio, HCT-116” value is reported as 5.15%. Moreover, the IC50 in the assay with A549 (Homo sapiens, A549, read-out: IC50 A549) came out at 2.69 ± 0.09 µM. Besides, the “folds more active than erlotinib, A549” value in the assay with A549 (setting [4]) is listed as 7.18 folds. The IC50 with HepG-2 (Homo sapiens, HepG2, read-out: IC50 HepG-2) worked out at 3.02 ± 0.12 µM. In addition, in the assay on HepG-2 (setting [4]), the “folds more active than erlotinib, HepG-2” value was determined as 4.34 folds. In the assay on HCT-116 [3] (Homo sapiens, HCT-116, read-out: IC50 HCT-116), the IC50 is 3.32 ± 0.15 µM. Further, the “folds more active than erlotinib, HCT-116” value in the assay on HCT-116 [3] (setting [4]) is 5.04 folds.

As usually defined, the Dmax is the largest share of the target that was removed. For orientation: IC50 means the concentration needed to halve the response being measured.
